Experiments:
[1] = compound: O=C(Nc1ccc2[nH]nc(-c3ccncc3)c2c1)[C@@H]1CCN(CC(=O)N2CCN(c3ccc(-c4ncccn4)cc3)CC2)C1; settings: max 5 µM
How it was run: (§1)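 Cancer cell lines were seeded in 1536-well plates in 7.5 μl DMEM/F12 or RPMI with 10% FBS, held 24 hours at 37°C and 5% CO2, then dosed for 72 hours (final DMSO typically 0.2%). Viability was read by CellTiter-Glo 2.0 luminescence and scaled between blank-well and DMSO-well means. The single-agent IC50 comes from dose responses fitted to a two-parameter logistic curve with a non-linear mixed effects model.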

Gemcitabine = compound: Nc1ccn([C@@H]2O[C@H](CO)[C@@H](O)C2(F)F)c(=O)n1 [Gemcitabine]; settings: max 0.3 µM
How it was run: as §1

Etoposide = compound: COc1cc([C@@H]2c3cc4c(cc3[C@@H](O[C@@H]3O[C@@H]5CO[C@@H](C)O[C@H]5[C@H](O)[C@H]3O)[C@H]3COC(=O)[C@H]23)OCO4)cc(OC)c1O [Etoposide]; settings: max 10 µM
How it was run: as §1

Paclitaxel = compound: CC(=O)O[C@H]1C(=O)[C@@]2(C)[C@H]([C@H](OC(=O)c3ccccc3)[C@]3(O)C[C@H](OC(=O)[C@H](O)[C@@H](NC(=O)c4ccccc4)c4ccccc4)C(C)=C1C3(C)C)[C@]1(OC(C)=O)CO[C@@H]1C[C@@H]2O [Paclitaxel]; settings: max 3 µM
How it was run: as §1

AZD6738 = compound: C[C@@H]1COCCN1C2=NC(=NC(=C2)C3(CC3)[S@](=N)(=O)C)C4=C5C=CNC5=NC=C4 [AZD6738]; settings: max 10 µM
How it was run: as §1

AZD7648 = compound: Cc1cc2ncnn2cc1Nc1ncc2c(n1)n(C1CCOCC1)c(=O)n2C [AZD7648]; settings: max 10 µM
How it was run: as §1

AZD5991 = compound: Cc1c2c(nn1C)CSCc1cc(n(C)n1)CSc1cc(c3ccccc3c1)OCCCc1c(C(=O)O)n(C)c3c-2c(Cl)ccc13 [AZD5991]; settings: max 1 µM
How it was run: as §1

Carboplatin = compound: C1CC(C1)(C(=O)[O-])C(=O)[O-].N.N.[Pt+2] [Carboplatin]; settings: max 10 µM
How it was run: as §1

5-Fluorouracil = compound: O=c1[nH]cc(F)c(=O)[nH]1 [5-Fluorouracil]; settings: max 20 µM
How it was run: as §1

Selumetinib = compound: Cn1cnc2c(F)c(Nc3ccc(Br)cc3Cl)c(C(=O)NOCCO)cc21 [Selumetinib]; settings: max 10 µM
How it was run: as §1

Trametinib = compound: CC(=O)Nc1cccc(-n2c(=O)n(C3CC3)c(=O)c3c(Nc4ccc(I)cc4F)n(C)c(=O)c(C)c32)c1 [Trametinib]; settings: max 1 µM
How it was run: as §1

Savolitinib = compound: C[C@@H](c1ccc2nccn2c1)n1nnc2ncc(-c3cnn(C)c3)nc21 [Savolitinib]; settings: max 1 µM
How it was run: as §1

AZD5363 = compound: C1CN(CCC1(C(=O)N[C@@H](CCO)C2=CC=C(C=C2)Cl)N)C3=NC=NC4=C3C=CN4 [AZD5363]; settings: max 10 µM
How it was run: as §1

SN-38 = compound: CCc1c2c(nc3ccc(O)cc13)-c1cc3c(c(=O)n1C2)COC(=O)[C@]3(O)CC [SN-38]; settings: max 0.3 µM
How it was run: as §1

Olaparib = compound: O=C(c1cc(Cc2n[nH]c(=O)c3ccccc23)ccc1F)N1CCN(C(=O)C2CC2)CC1 [Olaparib]; settings: max 10 µM
How it was run: as §1

AZD2811 = compound: CCN(CCO)CCCOc1ccc2c(Nc3cc(CC(=O)Nc4cccc(F)c4)[nH]n3)ncnc2c1 [AZD2811]; settings: max 1 µM
How it was run: as §1

Lapatinib = compound: CS(=O)(=O)CCNCc1ccc(-c2ccc3ncnc(Nc4ccc(OCc5cccc(F)c5)c(Cl)c4)c3c2)o1 [Lapatinib]; settings: max 10 µM
How it was run: as §1

AZD0156 = compound: CN(C)CCCOc1ccc(-c2ccc3ncc4c(c3c2)n(C2CCOCC2)c(=O)n4C)cn1 [AZD0156]; settings: max 3 µM
How it was run: as §1

SRA737 = compound: N#Cc1cnc(Nc2cc(NC[C@H]3CNCCO3)c(C(F)(F)F)cn2)cn1 [SRA737]; settings: max 10 µM
How it was run: as §1

Prexasertib = compound: COc1cccc(OCCCN)c1-c1cc(Nc2cnc(C#N)cn2)n[nH]1 [Prexasertib]; settings: max 1 µM
How it was run: as §1

SG3199 = compound: CC1=CN2[C@@H](C1)C=NC3=CC(=C(C=C3C2=O)OC)OCCCCCOC4=C(C=C5C(=C4)N=C[C@@H]6CC(=CN6C5=O)C)OC [SG3199]; settings: max 0.001 µM
How it was run: as §1

Doxorubicin = compound: COc1cccc2c1C(=O)c1c(O)c3c(c(O)c1C2=O)C[C@@](O)(C(=O)CO)C[C@@H]3O[C@H]1C[C@H](N)[C@H](O)[C@H](C)O1 [Doxorubicin]; settings: max 1 µM
How it was run: as §1

AZD1775 = compound: C=CCn1c(=O)c2cnc(Nc3ccc(N4CCN(C)CC4)cc3)nc2n1-c1cccc(C(C)(C)O)n1 [AZD1775]; settings: max 3 µM
How it was run: as §1

Palbociclib = compound: CC(=O)c1c(C)c2cnc(Nc3ccc(N4CCNCC4)cn3)nc2n(C2CCCC2)c1=O [Palbociclib]; settings: max 10 µM
How it was run: as §1

AZD1390 = compound: CC(C)n1c(=O)n(C)c2cnc3cc(F)c(-c4ccc(OCCCN5CCCCC5)nc4)cc3c21 [AZD1390]; settings: max 0.3 µM
How it was run: as §1

AZD5153 = compound: COc1nnc2ccc(N3CCC(c4ccc(OCCN5CCN(C)C(=O)[C@H]5C)cc4)CC3)nn12 [AZD5153]; settings: max 1 µM
How it was run: as §1

Alisertib = compound: COc1cc(Nc2ncc3c(n2)-c2ccc(Cl)cc2C(c2c(F)cccc2OC)=NC3)ccc1C(=O)O [Alisertib]; settings: max 10 µM
How it was run: as §1

AZD8186 = compound: C[C@@H](Nc1cc(F)cc(F)c1)c1cc(C(=O)N(C)C)cc2c(=O)cc(N3CCOCC3)oc12 [AZD8186]; settings: max 10 µM
How it was run: as §1

AZD4320 = compound: CN(CC[C@H](CSC1=CC=CC=C1)NC2=C(C=C(C=C2)S(=O)(=O)NC(=O)C3=CC=C(C=C3)N4CCC(CC4)[C@H](C5=CC=CC=C5C6=CC=C(C=C6)Cl)O)S(=O)(=O)C(F)(F)F)CCO [AZD4320]; settings: max 1 µM
How it was run: as §1

Venetoclax = compound: CC1(C)CCC(CN2CCN(c3ccc(C(=O)NS(=O)(=O)c4ccc(NCC5CCOCC5)c([N+](=O)[O-])c4)c(Oc4cnc5[nH]ccc5c4)c3)CC2)=C(c2ccc(Cl)cc2)C1 [Venetoclax]; settings: max 1 µM
How it was run: as §1

MK-2206 = compound: NC1(c2ccc(-c3nc4ccn5c(=O)[nH]nc5c4cc3-c3ccccc3)cc2)CCC1 [MK-2206]; settings: max 10 µM
How it was run: as §1

Dasatinib = compound: CC1=C(C(=CC=C1)Cl)NC(=O)C2=CN=C(S2)NC3=CC(=NC(=N3)C)N4CCN(CC4)CCO [Dasatinib]; settings: max 2 µM
How it was run: as §1

Gefitinib = compound: COc1cc2ncnc(Nc3ccc(F)c(Cl)c3)c2cc1OCCCN1CCOCC1 [Gefitinib]; settings: max 10 µM
How it was run: as §1

Taselisib = compound: Cc1nc(-c2cn3c(n2)-c2ccc(-c4cnn(C(C)(C)C(N)=O)c4)cc2OCC3)n(C(C)C)n1 [Taselisib]; settings: max 10 µM
How it was run: as §1

Crizotinib = compound: C[C@@H](Oc1cc(-c2cnn(C3CCNCC3)c2)cnc1N)c1c(Cl)ccc(F)c1Cl [Crizotinib]; settings: max 10 µM
How it was run: as §1

Row | Cell Line | IC50, cell viability 72 h [1] [µM] | IC50, cell viability 72 h (Gemcitabine) [µM] | IC50, cell viability 72 h (Etoposide) [µM] | IC50, cell viability 72 h (Paclitaxel) [µM] | IC50, cell viability 72 h (AZD6738) [µM] | IC50, cell viability 72 h (AZD7648) [µM] | IC50, cell viability 72 h (AZD5991) [µM] | IC50, cell viability 72 h (Carboplatin) [µM] | IC50, cell viability 72 h (5-Fluorouracil) [µM] | IC50, cell viability 72 h (Selumetinib) [µM] | IC50, cell viability 72 h (Trametinib) [µM] | IC50, cell viability 72 h (Savolitinib) [µM] | IC50, cell viability 72 h (AZD5363) [µM] | IC50, cell viability 72 h (SN-38) [µM] | IC50, cell viability 72 h (Olaparib) [µM] | IC50, cell viability 72 h (AZD2811) [µM] | IC50, cell viability 72 h (Lapatinib) [µM] | IC50, cell viability 72 h (AZD0156) [µM] | IC50, cell viability 72 h (SRA737) [µM] | IC50, cell viability 72 h (Prexasertib) [µM] | IC50, cell viability 72 h (SG3199) [µM] | IC50, cell viability 72 h (Doxorubicin) [µM] | IC50, cell viability 72 h (AZD1775) [µM] | IC50, cell viability 72 h (Palbociclib) [µM] | IC50, cell viability 72 h (AZD1390) [µM] | IC50, cell viability 72 h (AZD5153) [µM] | IC50, cell viability 72 h (Alisertib) [µM] | IC50, cell viability 72 h (AZD8186) [µM] | IC50, cell viability 72 h (AZD4320) [µM] | IC50, cell viability 72 h (Venetoclax) [µM] | IC50, cell viability 72 h (MK-2206) [µM] | IC50, cell viability 72 h (Dasatinib) [µM] | IC50, cell viability 72 h (Gefitinib) [µM] | IC50, cell viability 72 h (Taselisib) [µM] | IC50, cell viability 72 h (Crizotinib) [µM]
1 | NCI-H520 (Squamous Cell Lung Carcinoma) | > 5 | 0.0936 | > 10 | 0.0431 | 7.34 | > 10 | > 1 | > 10 | > 20 | > 10 | > 1 | > 1 | 4.01 | 0.046 | > 10 | > 1 | > 10 | > 3 | > 10 | 0.0443 | > 0.001 | > 1 | 1.03 | 4.77 | > 0.3 | 0.923 | 8.62 | 4.99 | > 1 | > 1 | 1.87 | > 2 | > 10 | 2.34 | > 10
2 | NCI-H526 (Small Cell Lung Carcinoma) | > 5 | 0.251 | 0.713 | 0.00908 | 10 | > 10 | > 1 | > 10 | 12.8 | > 10 | > 1 | > 1 | > 10 | 0.00257 | > 10 | > 1 | > 10 | > 3 | > 10 | 0.0838 | > 0.001 | 0.107 | 0.642 | > 10 | > 0.3 | 0.0801 | 9.42 | > 10 | 0.0434 | 0.246 | > 10 | > 2 | > 10 | > 10 | 7.94
3 | NCI-H929 (Plasma Cell Myeloma) | 0.981 | 0.0121 | 1.25 | 0.00454 | 5.41 | 2.27 | 0.0175 | > 10 | 7.15 | 3.13 | 0.0329 | > 1 | 0.106 | 0.0131 | > 10 | > 1 | > 10 | 1.15 | > 10 | 0.179 | > 0.001 | 0.548 | 1.06 | > 10 | > 0.3 | 0.0134 | > 10 | 0.728 | > 1 | > 1 | 0.0699 | > 2 | > 10 | 0.0236 | 0.982
4 | NCI-H2731 (Mesothelioma) | > 5 | > 0.3 | > 10 | 1.78 | > 10 | > 10 | > 1 | > 10 | > 20 | > 10 | > 1 | > 1 | > 10 | > 0.3 | > 10 | > 1 | > 10 | > 3 | > 10 | > 1 | > 0.001 | > 1 | > 3 | > 10 | > 0.3 | > 1 | > 10 | > 10 | > 1 | > 1 | > 10 | > 2 | > 10 | > 10 | > 10
5 | NCI-H3122 (Lung Adenocarcinoma) | 0.958 | 0.032 | > 10 | 0.00901 | 7.46 | > 10 | > 1 | > 10 | > 20 | 7.82 | 0.0589 | > 1 | > 10 | 0.0177 | > 10 | > 1 | > 10 | > 3 | > 10 | 0.315 | > 0.001 | 0.237 | > 3 | 2.58 | > 0.3 | 0.612 | > 10 | > 10 | > 1 | > 1 | 7.95 | > 2 | > 10 | 1.08 | 0.323
